Data as given in patent US20220233534A1, “CERDULATINIB-CONTAINING TOPICAL SKIN PHARMACEUTICAL COMPOSITIONS AND USES THEREOF” (DERMAVANT SCIENCES GMBH, priority 2019, published 2022).

Legend:
vitiligo mouse model = test: Study DMVT-502-9025 mouse model of vitiligo; type: in vivo
Description: The model mimics human vitiligo by inducing epidermal depigmentation with autoreactive CD8+ T-cell accumulation. A schematic of the model is depicted in FIG. 15.
Ten mice were used in the study: three REX3 reporter mice for cytokines CXCL9 and CXCL10 and seven SCF (stem cell factor) mice. The vitiligo study timeline is depicted in FIG. 16. The following assessments were performed during the study:
Blinded scoring of ears, tail, nose, and ventral feet (0-5 scale)
Epidermal, dermal, spleen, and lymph node PMEL (premelanosome protein) cell count
Epidermal/dermal APC (antigen-presenting cell) count
Keratinocyte Cytokine Expression

[1] = tested on: DNCB-induced atopic dermatitis NC/Nga mouse; test: DNCB-induced atopic dermatitis in the NC/Nga mouse model; type: in vivo
Description: Atopic dermatitis was induced by repeated application of DNCB (1-chloro-2,4-dinitrobenzene) to the dorsal skin of the ears/back. […] Lesions were evaluated on days 2, 8, 11, and 14.
Macroscopic lesion severity scores are depicted in FIG. 7. Macroscopic skin lesion severity was measured on the indicated Study Days by assessing (0-3 scale) the presence of erythema, edema, excoriation/erosion, and dryness scaling on the ears, neck, and dorsal skin of animals.
Serum IgE levels are depicted in FIG. 8. Serum samples obtained on Study Day 15 were utilized for IgE quantitation. Select cytokine data from the study are depicted in FIG. 9. Skin samples harvested on Day 15 were analyzed by LUMINEX for inflammatory cytokine levels for IL-4, IL-5, IL-13, and IL-31.

[2] = 60 mg/kg once daily oral, 5 weeks
[3] = 30 and 60 mg/kg once daily oral, 5 weeks

## CCS(=O)(=O)N1CCN(c2ccc(Nc3ncc(C(N)=O)c(NC4CC4)n3)cc2)CC1 [DMVT-502, Cerdulatinib]
Vitiligo mouse model; [2]
  APCs in the dermal skin compartment and Langerhans cells in the epidermal skin compartment compared with vehicle: significantly reduced
  CD3+, CD8− T-cell counts in the spleen: significantly reduced
  PMEL T-cell counts in dermis and blood: significantly reduced
  host T-cell counts in blood: significantly decreased
Vitiligo mouse model; [3]
  APC counts in lymph nodes and the spleen compared with vehicle: significantly reduced
  PMEL T-cell counts in the epidermis and dermis compared with vehicle: significantly reduced
  host-derived total T-cell counts in the spleen: significantly reduced
  vitiligo scores compared with vehicle controls: significantly decreased
Vitiligo mouse model; 30 or 60 mg/kg once daily oral, 5 weeks
  lymph node or spleen PMEL T cells: no significant differences
Vitiligo mouse model; SCF/REX3 mice
  CXCL9, CXCL10, and dual expression in keratinocytes compared with vehicle: trends towards reduced
Vitiligo mouse model; once daily oral, 5 weeks
  CXCL9 and CXCL10 expression in lymph node APCs: Reduced
  total keratinocyte counts between treatment groups: No decrease
[1]; topical therapy, Study Day 15
  serum IgE levels: trends towards reduction
[1]; topical treatment, Day 15, LUMINEX
  pro-inflammatory cytokine levels in skin (IL-4, IL-5, IL-13, IL-31): limited suppression
